# Experimental data taken from PubChem BioAssay AID1963854 (Molecular Pharmacology Branch, DTP, NCI, 2024).
# Test system: 186277-243-T-J2-PDC complex spheroid viability
# Experiment: Anticancer human tumor 186277-243-T-J2-PDC patient-derived colon adenocarcinoma cell line growth inhibition [POLQ]
# Settings: for IC50: curve of first compound; for viability, T/C: stronger effect = lower value
# Protocol: Multicellular complex tumor spheroid response to Polymerase (POL) inhibitors (novobiocin, ART-558, RP6685) in combination with a variety of drugs and investigational agents in selected tumor cell lines
# The POL inhibitors (novobiocin, ART-558, and RP6685) were evaluated both individually and in combination with standard of care and investigational anticancer small molecules within a complex spheroid model of solid tumors. . Complex spheroids include a stromal component modeled by human endothelial cells (HUVEC) and fibroblasts modeled by human mesenchymal stem cells (MSCs). The concentration ranges selected for each drug and investigational agent were based upon clinically achievable concentrations if the clinical Cmax of the agent was known.
# Compounds. The drugs and investigational agents: novobiocin (NSC847541), ART-558 (NSC835418), RP-6685 (NSC848927), peposertib (NSC802822), ceralasertib (NSC780249), elimusertib (NSC800525), camonsertib (NSC841442), AZD-1390 (NSC803789), olaparib (NSC753686), talazoparib (NSC767125), rucaparib (NSC756644), sotorasib (NSC818433), MRTX-1133 (NSC836407), SN-38 (NSC673596), topotecan (NSC609699), epotoside (NSC141540), doxorubicin (NSC123127), gemcitabine (NSC613327), 5-fluorouracil (NSC19893), paclitaxel (NSC125973), vemurafenib (NSC761431), MSA-2 (NSC828583), SN-011 (NSC837082), adavosertib (NSC754352), prexasertib (NSC758257), carboplatin (NSC241240) and oxaliplatin (NSC266046), were obtained from the National Cancer Institute (NCI) Developmental Therapeutics Program Chemical Repository (21). The FDA-approved anticancer drug set is available from the Developmental Therapeutics Program at https://dtp.cancer.gov/organization/dscb/obtaining/. […] The stock solutions were prepared in dimethyl sulfoxide (DMSO, Sigma-Aldrich, St. Louis, MO, cat. D2650), except for the platinum compounds which were prepared in saline (Quality Biological, Gaithersburg, MD, cat. 114-055-101), at 800-fold the tested concentration and stored at -70 degrees C prior to their use. All drugs and investigational agents were tested over a range starting from a high concentration at or near the clinical Cmax and decreasing in half-log increments. If the clinical Cmax for an agent had not been determined, the highest concentration tested was 10 microM, except for SN-38, which was tested at a high concentration of 1 microM.
# Cell Culture. All cells were maintained in an incubator at 37 degrees C and 5% CO2 with 95% humidity. The PDC lines were cultured according to standard operating procedures established by the NCI PDMR (https://pdmr.cancer.gov). Table 3 of the manuscript, lists the cell lines along with the number of the three cell types plated to form the mct-spheroids and media for tumor cell growth. After thawing, all PDC lines, except 997537-175-T-J1-PDC and 415267-285-R-J2-PDC, were cultured in Matrigel-coated flasks prepared with a working solution of 1X Ham's F-12 nutrient mix, without supplementation (Thermo Fisher Scientific, cat. 11765054), 100 U/mL penicillin-streptomycin (Thermo Fisher Scientific, cat. 15140122), and 2.5% Matrigel (Corning Inc., Corning, NY, cat. 354248) for the first three passages. The two PDC lines 997537-175-T-J1-PDC and 415267-285-R-J2-PDC were cultured on uncoated flasks. The 857933-349-R-J2-PDC line was cultured in 6C/Colon 1B media containing advanced DMEM/F-12 (Thermo Fisher Scientific, cat. 12634028), 10 mM HEPES (Thermo Fisher Scientific, cat. 15630080), 1X GlutaMAX supplement (Thermo Fisher Scientific, cat. 35050061), 0.1 mg/mL primocin (InvivoGen, San Diego, CA, cat. ant-pm-2), 10% defined fetal bovine serum, heat inactivated (HyClone Laboratories Inc., Logan, UT, cat. SH30070.03HI), 50% L-WRN conditioned media (ATCC, cat. CRL-3276), 1.25 mM N-Acetyl-L-cysteine (Sigma-Aldrich, cat. A9165), 10 mM nicotinamide (Sigma-Aldrich, cat. N0636), 1X B-27 supplement (Thermo Fisher Scientific, cat. 17504044), 1X N-2 supplement (Thermo Fisher Scientific, cat. […]
# 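Also: spheroids exposed to compounds for seven days.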
# 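For viability, T/C in this document: 100% = DMSO vehicle control viability.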
smiles,measurement,setting,value
COc1cccc2c1C(=O)c1c(O)c3c(c(O)c1C2=O)CC(O)(C(=O)CO)CC3OC1CC(N)C(O)C(C)O1 (configuration not stated) + COC1C(OC(N)=O)C(O)C(Oc2ccc3c(O)c(NC(=O)c4ccc(O)c(CC=C(C)C)c4)c(=O)oc3c2C)OC1(C)C,IC50,second compound 0.0316 µM,77.7 nM
same,IC50,second compound 0.1 µM,88.7 nM
same,IC50,second compound 0.316 µM,91.6 nM
same,IC50,second compound 1 µM,92.4 nM
same,IC50,second compound 3.16 µM,92.1 nM
same,IC50,second compound 10 µM,86.4 nM
same,"viability, T/C","second compound 0.0316 µM, first compound 0.0316 µM",89.2%
same,"viability, T/C","second compound 0.0316 µM, first compound 0.1 µM",38.9%
same,"viability, T/C","second compound 0.0316 µM, first compound 0.316 µM",9.13%
same,"viability, T/C","second compound 0.0316 µM, first compound 1 µM",0.32%
same,"viability, T/C","second compound 0.0316 µM, first compound 3.16 µM",0.18%
same,"viability, T/C","second compound 0.0316 µM, first compound 10 µM",0.46%
same,"viability, T/C","second compound 0.1 µM, first compound 0.0316 µM",94.1%
same,"viability, T/C","second compound 0.1 µM, first compound 0.1 µM",44.9%
same,"viability, T/C","second compound 0.1 µM, first compound 0.316 µM",8.43%
same,"viability, T/C","second compound 0.1 µM, first compound 1 µM",0.24%
same,"viability, T/C","second compound 0.1 µM, first compound 3.16 µM",0.13%
same,"viability, T/C","second compound 0.1 µM, first compound 10 µM",0.51%
same,"viability, T/C","second compound 0.316 µM, first compound 0.0316 µM",90.7%
same,"viability, T/C","second compound 0.316 µM, first compound 0.1 µM",46.6%
same,"viability, T/C","second compound 0.316 µM, first compound 0.316 µM",9.28%
same,"viability, T/C","second compound 0.316 µM, first compound 1 µM",0.18%
same,"viability, T/C","second compound 0.316 µM, first compound 3.16 µM",0.13%
same,"viability, T/C","second compound 0.316 µM, first compound 10 µM",0.36%
same,"viability, T/C","second compound 1 µM, first compound 0.0316 µM",92.1%
same,"viability, T/C","second compound 1 µM, first compound 0.1 µM",46.9%
same,"viability, T/C","second compound 1 µM, first compound 0.316 µM",9.15%
same,"viability, T/C","second compound 1 µM, first compound 1 µM",0.2%
same,"viability, T/C","second compound 1 µM, first compound 3.16 µM",0.16%
same,"viability, T/C","second compound 1 µM, first compound 10 µM",0.36%
same,"viability, T/C","second compound 3.16 µM, first compound 0.0316 µM",88.9%
same,"viability, T/C","second compound 3.16 µM, first compound 0.1 µM",47%
same,"viability, T/C","second compound 3.16 µM, first compound 0.316 µM",8.15%
same,"viability, T/C","second compound 3.16 µM, first compound 1 µM",0.24%
same,"viability, T/C","second compound 3.16 µM, first compound 3.16 µM",0.2%
same,"viability, T/C","second compound 3.16 µM, first compound 10 µM",0.37%
same,"viability, T/C","second compound 10 µM, first compound 0.0316 µM",95.8%
same,"viability, T/C","second compound 10 µM, first compound 0.1 µM",43.3%
same,"viability, T/C","second compound 10 µM, first compound 0.316 µM",8.67%
same,"viability, T/C","second compound 10 µM, first compound 1 µM",0.31%
same,"viability, T/C","second compound 10 µM, first compound 3.16 µM",0.31%
same,"viability, T/C","second compound 10 µM, first compound 10 µM",0.68%
